Experimental data from patent EP3345917A1, “ANTIPROTOZOAL COMPOUNDS” (Bacoba AG, priority 2017, dated 2018).
Non-standard residues stand in square brackets, D forms with d. Residues, ends and D or L forms follow the SMILES beside them. *: point of attachment. Acetyl(1-adamantyl) = O=C(CC12CC3CC(CC(C3)C1)C2)*; Benzenesulfonyl(4-F) = O=S(=O)(c1ccc(F)cc1)*; Hexenoyl(2E,4S-Me) = CC[C@H](C)/C=C/C(=O)*; Leu(3R-OH) = CC(C)[C@@H](O)[C@H](N)C(=O)O; NH((S)CH(Me)CH2NMe2) = C[C@@H](CN(C)C)N*; Pro(4S-Me) = C[C@@H]1CN[C@H](C(=O)O)C1; Gly(octyl) = CCCCCCCC[C@H](N)C(=O)O; Nva(5-OH) = N[C@@H](CCCO)C(=O)O; X5 = CN(C)[C@H]1CCCC[C@@H]1N*; X8 = C[C@@H](CN1CCCCC1)N*; Hexanoyl = CCCCCC(=O)*; X13 = O=C(CCN1CCOCC1)*; Aib = CC(C)(N)C(=O)O; βAla = NCCC(=O)O

Assays:
[1] = system: Trypanosoma brucei rhodesiense (STIB 900 strain); assay: Alamar Blue assay against Trypanosoma brucei rhodesiense grown in axenic medium; format: cell-based; details: In vitro inhibition, read-out: T.b.rhod.
In short: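 Alamar Blue-based IC50 determination, in triplicate, on axenically grown STIB 900 trypanosomes. Melarsoprol included as reference.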

[2] = system: intracellular Leishmania donovani (L.don. InMac); assay: Intracellular Leishmania donovani assay (L.don. InMac); format: cell-based; details: In vitro inhibition
Source text: (§1) Tests were done in triplicate.

[3] = Cytotoxicity assay on L6-cells (Alamar Blue); details: rat, Cytotox L6, Cytotoxicity against rat myoblast cells (L6)
Description: Tests were done in triplicate. IC50 values against the parasites as well as cytotoxic effects against rat myoblast (L6-cells) were determined by serial dilution and repeated twice.
After 68 h of incubation under humidified 5% CO2 atmosphere, 10 µl of the Alamar blue marker was added to all wells. The plates were incubated for an additional 2 h. […] The IC50S were calculated by Softmax Pro software (Molecular Devices Cooperation, Sunnyvale, CA). […] Cytotoxicity was measured against rat myoblast cells (Cytotox L6).

[4] = system: Plasmodium falciparum; assay: 3H-hypoxanthine incorporation assay against Plasmodium falciparum; format: cell-based; details: In vitro inhibition, read-out: P.falc NF5
Description: as §1
IC50 values were calculated by linear interpolation.

[5] = system: Trypanosoma cruzi trypomastigote forms (Tulahuen strain); assay: Intracellular Trypanosoma cruzi assay in L6-cells, beta-galactosidase/CPRG readout; format: cell-based; details: In vitro inhibition, read-out: T.cruzi.
In short: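 Readout was β-galactosidase cleavage of CPRG, read photometrically at 540 nm after 2–6 h colour development, giving IC50 values. Parasites: LacZ-expressing Tulahuen C2C4 strain grown in rat L6 myoblasts; run in triplicate.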

[6] = system: Axenically grown Leishmania donovani amastigotes (strain MHOM/ET/67/L82); assay: Axenic Leishmania donovani amastigote resazurin assay; format: cell-based; details: In vitro inhibition, read-out: L.don. ax
In short: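 IC50 values derive from resazurin fluorescence (ex 536 nm, em 588 nm), expressed relative to the negative control, after 2-4 hours of plate development. Axenic amastigotes of strain MHOM/ET/67/L82 were used; each test run in triplicate.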

Compound: CCCCCCCC[C@H](NC(=O)[C@@H]1CCCN1C(=O)CCN1CCOCC1)C(=O)N[C@@H](CC(C)C)C(=O)NC(C)(C)C(=O)N[C@@H](CC(C)C)C(=O)N[C@@H](CC(C)C)C(=O)NC(C)(C)C(=O)NC(C)(C)C(=O)NCCC(=O)N[C@@H](C)CN(C)C [Compound 5650, (2S)-N-[(1S)-1-[(1-{[(1S)-1-{[(1S)-1-{[1-({1-[(2-{[(2S)-1-(dimethylamino)propan-2-yl]carbamoyl}ethyl)carbamoyl]-1-methylethyl}carbamoyl)-1-methylethyl]carbamoyl}-3-methylbutyl]carbamoyl}-3-methylbutyl]carbamoyl}-1-methylethyl)carbamoyl]-3-methylbutyl]-2-{[(2S)-1-[3-(morpholin-4-yl)propanoyl]pyrrolidin-2-yl]formamido}decanamide] (X13-P[Gly(octyl)]L[Aib]LL[Aib][Aib][βAla]-{NH((S)CH(Me)CH2NMe2)})
- IC50 [1]: 15.3 nM
- IC50 [2]: 188 nM
- IC50 at 70 h [3]: 492 nM
- IC50 [4]: 11.1 nM
- IC50 [5]: 133 nM
- IC50 [6]: 105 nM

Compound: CCCCCCCC[C@H](NC(=O)[C@@H]1CCCN1S(=O)(=O)c1ccc(F)cc1)C(=O)N[C@@H](CC(C)C)C(=O)NC(C)(C)C(=O)N[C@@H](CC(C)C)C(=O)N[C@@H](CC(C)C)C(=O)NC(C)(C)C(=O)NC(C)(C)C(=O)NCCC(=O)N[C@@H](C)CN(C)C [Compound 5935, (2S)-N-[(1S)-1-[(1-{[(1S)-1-{[(1S)-1-{[1-({1-[(2-{[(2S)-1-(dimethylamino)propan-2-yl]carbamoyl}ethyl)carbamoyl]-1-methylethyl}carbamoyl)-1-methylethyl]carbamoyl}-3-methylbutyl]carbamoyl}-3-methylbutyl]carbamoyl}-1-methylethyl)carbamoyl]-3-methylbutyl]-2-{[(2S)-1-(4-fluorobenzenesulfonyl)pyrrolidin-2-yl]formamido}decanamide] ({Benzenesulfonyl(4-F)}-P[Gly(octyl)]L[Aib]LL[Aib][Aib][βAla]-{NH((S)CH(Me)CH2NMe2)})
- IC50 [1]: 42400 nM
- IC50 [2]: < 33.5 nM
- IC50 at 70 h [3]: 384 nM
- IC50 [4]: 47300 nM
- IC50 [5]: 33.5 nM
- IC50 [6]: 14500 nM

Compound: CCCCCCCC[C@H](NC(=O)[C@@H]1CCCN1C(=O)CCCCC)C(=O)N[C@@H](CC(C)C)C(=O)NC(C)(C)C(=O)N[C@@H](CC(C)C)C(=O)N[C@@H](CC(C)C)C(=O)NC(C)(C)C(=O)NC(C)(C)C(=O)NCCC(=O)N[C@@H](C)CN1CCCCC1 [Compound 5886, (2S)-2-{[(2S)-1-hexanoylpyrrolidin-2-yl]formamido}-N-[(1S)-3-methyl-1-[(1-methyl-1-{[(1S)-3-methyl-1-{[(1S)-3-methyl-1-{[1-methyl-1-({1-methyl-1-[(2-{[(2S)-1-(piperidin-1-yl)propan-2-yl]carbamoyl}ethyl)carbamoyl]ethyl}carbamoyl)ethyl]carbamoyl}butyl]carbamoyl}butyl]carbamoyl}ethyl)carbamoyl]butyl]decanamide] (Hexanoyl-P[Gly(octyl)]L[Aib]LL[Aib][Aib][βAla]-X8)
- IC50 [1]: 496 nM
- IC50 [2]: 602 nM
- IC50 at 70 h [3]: 938 nM
- IC50 [4]: 36100 nM
- IC50 [5]: 4260 nM
- IC50 [6]: 190 nM

Compound: CC[C@H](C)/C=C/C(=O)N1C[C@@H](C)C[C@H]1C(=O)N[C@@H](CCCO)C(=O)N[C@H](C(=O)NC(C)(C)C(=O)N[C@@H](CC(C)C)C(=O)N[C@@H](CC(C)C)C(=O)NC(C)(C)C(=O)NC(C)(C)C(=O)NCCC(=O)N[C@@H](C)CN(C)C)[C@H](O)C(C)C [Compound 5496, (2S,3R)-N-(1-{[(1S)-1-{[(1S)-1-{[1-({1-[(2-{[(2S)-1-(dimethylamino)propan-2-yl]carbamoyl}ethyl)carbamoyl]-1-methylethyl}carbamoyl)-1-methylethyl]carbamoyl}-3-methylbutyl]carbamoyl}-3-methylbutyl]carbamoyl}-1-methylethyl)-3-hydroxy-2-[(2S)-5-hydroxy-2-{[(2S,4S)-4-methyl-1-[(2E,4S)-4-methylhex-2-enoyl]pyrrolidin-2-yl]formamido}pentanamido]-4-methylpentanamide] ({Hexenoyl(2E,4S-Me)}-[Pro(4S-Me)][Nva(5-OH)][Leu(3R-OH)][Aib]LL[Aib][Aib][βAla]-{NH((S)CH(Me)CH2NMe2)})
- IC50 [1]: 6.2 nM
- IC50 [2]: 2680 nM
- IC50 at 70 h [3]: 5220 nM
- IC50 [4]: 660 nM
- IC50 [5]: 5110 nM
- IC50 [6]: 467 nM

Compound: CCCCCCCC[C@H](NC(=O)[C@@H]1CCCN1C(=O)/C=C/[C@@H](C)CC)C(=O)N[C@H](C(=O)NC(C)(C)C(=O)N[C@@H](CC(C)C)C(=O)N[C@@H](CC(C)C)C(=O)NC(C)(C)C(=O)NC(C)(C)C(=O)NCCC(=O)N[C@@H](C)CN(C)C)[C@H](O)C(C)C [Compound 5488, (2S)-N-[(1S,2R)-1-[(1-{[(1S)-1-{[(1S)-1-{[1-({1-[(2-{[(2S)-1-(dimethylamino)propan-2-yl]carbamoyl}ethyl)carbamoyl]-1-methylethyl}carbamoyl)-1-methylethyl]carbamoyl}-3-methylbutyl]carbamoyl}-3-methylbutyl]carbamoyl}-1-methylethyl)carbamoyl]-2-hydroxy-3-methylbutyl]-2-{[(2S)-1-[(2E,4S)-4-methylhex-2-enoyl]pyrrolidin-2-yl]formamido}decanamide] ({Hexenoyl(2E,4S-Me)}-P[Gly(octyl)][Leu(3R-OH)][Aib]LL[Aib][Aib][βAla]-{NH((S)CH(Me)CH2NMe2)})
- IC50 [1]: 2 nM
- IC50 [2]: 20.2 nM
- IC50 at 70 h [3]: 666 nM
- IC50 [4]: 2.6 nM
- IC50 [5]: 33.6 nM
- IC50 [6]: 0.6 nM

Compound: CCCCCCCC[C@H](NC(=O)[C@@H]1CCCN1C(=O)CC12CC3CC(CC(C3)C1)C2)C(=O)N[C@@H](CC(C)C)C(=O)NC(C)(C)C(=O)N[C@@H](CC(C)C)C(=O)N[C@@H](CC(C)C)C(=O)NC(C)(C)C(=O)NC(C)(C)C(=O)NCCC(=O)N[C@@H](C)CN(C)C [Compound 5771, (2S)-2-{[(2S)-1-[2-(adamantan-1-yl)acetyl]pyrrolidin-2-yl]formamido}-N-[(1S)-1-[(1-{[(1S)-1-{[(1S)-1-{[1-({1-[(2-{[(2S)-1-(dimethylamino)propan-2-yl]carbamoyl}ethyl)carbamoyl]-1-methylethyl}carbamoyl)-1-methylethyl]carbamoyl}-3-methylbutyl]carbamoyl}-3-methylbutyl]carbamoyl}-1-methylethyl)carbamoyl]-3-methylbutyl]decanamide] ({Acetyl(1-adamantyl)}-P[Gly(octyl)]L[Aib]LL[Aib][Aib][βAla]-{NH((S)CH(Me)CH2NMe2)})
- IC50 [1]: 6.9 nM
- IC50 [2]: 58.6 nM
- IC50 at 70 h [3]: 113 nM
- IC50 [4]: 0.8 nM
- IC50 [5]: 42.1 nM
- IC50 [6]: 0.8 nM

Compound: CCCCCCCC[C@H](NC(=O)[C@@H]1CCCN1C(=O)CCCCC)C(=O)N[C@@H](CC(C)C)C(=O)NC(C)(C)C(=O)N[C@@H](CC(C)C)C(=O)N[C@@H](CC(C)C)C(=O)NC(C)(C)C(=O)NC(C)(C)C(=O)NCCC(=O)N[C@H]1CCCC[C@@H]1N(C)C [Compound 5883, (2S)-N-[(1S)-1-[(1-{[(1S)-1-{[(1S)-1-{[1-({1-[(2-{[(1S,2S)-2-(dimethylamino)cyclohexyl]carbamoyl}ethyl)carbamoyl]-1-methylethyl}carbamoyl)-1-methylethyl]carbamoyl}-3-methylbutyl]carbamoyl}-3-methylbutyl]carbamoyl}-1-methylethyl)carbamoyl]-3-methylbutyl]-2-{[(2S)-1-hexanoylpyrrolidin-2-yl]formamido}decanamide] (Hexanoyl-P[Gly(octyl)]L[Aib]LL[Aib][Aib][βAla]-X5)
- IC50 [1]: 41300 nM
- IC50 [2]: 131 nM
- IC50 at 70 h [3]: 1480 nM
- IC50 [4]: 25300 nM
- IC50 [5]: 460 nM
- IC50 [6]: 19800 nM

Compound: CCCCCCCC[C@H](NC(=O)[C@@H]1CCCN1C(=O)CCCCC)C(=O)N[C@@H](CC(C)C)C(=O)NC(C)(C)C(=O)N[C@@H](CC(C)C)C(=O)N[C@@H](CC(C)C)C(=O)NC(C)(C)C(=O)NC(C)(C)C(=O)NCCC(=O)N[C@@H](C)CN(C)C [Compound 5632, (2S)-N-[(1S)-1-[(1-{[(1S)-1-{[(1S)-1-{[1-({1-[(2-{[(2S)-1-(dimethylamino)propan-2-yl]carbamoyl}ethyl)carbamoyl]-1-methylethyl}carbamoyl)-1-methylethyl]carbamoyl}-3-methylbutyl]carbamoyl}-3-methylbutyl]carbamoyl}-1-methylethyl)carbamoyl]-3-methylbutyl]-2-{[(2S)-1-hexanoylpyrrolidin-2-yl]formamido}decanamide] (Hexanoyl-P[Gly(octyl)]L[Aib]LL[Aib][Aib][βAla]-{NH((S)CH(Me)CH2NMe2)})
- IC50 [1]: 0.4 nM
- IC50 [2]: 52.1 nM
- IC50 at 70 h [3]: 162 nM
- IC50 [4]: 0.1 nM
- IC50 [5]: 10.2 nM
- IC50 [6]: 1.3 nM
